Test: recombinant barcode read abundance after kanamycin selection (control-corrected) (log10(CPM+1)); higher = more efficient recombination; sequences stand for … in AGTGCAGAGAAAATCGGCCAGTTTTCTCTGCCTGCAGTCCGCATGCCGT…ATTTATGCAGCGGACTGCCTTTCTCCCAAAGTGATAAACCGGACAGTATCATGGACCGGTTTTCCCGGTAATCCGTATTTGCAAGGTTGGTTTCACT; site = the 11-nt target
Protocol: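 Same pooled E. coli target screen (IS621 bridge recombinase, kanamycin selection, control-corrected CPM, mean of 2 biological replicates). Here the two core-binding nucleotides of the LTG and RTG of the bridge RNA target-binding loop are mutated. Target and donor CT cores are held constant, and the other 9 guide positions match the target. The target is read from the library oligo sequence. Molecule = full bridge RNA written as DNA: nt 1-80 from the library oligo, rest WT scaffold.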

Compared with “AAACACACTTGGGTTCTAACCTGTTGCCTCC [AAACACACTAG_LTGcore_CT_RTGcore_GG] (site AAACACACTAG) (LTG core: CT, RTG core: GG)”, “AAACACACTTGGGTTCTAACCTGTTGCCTCG [AAACACACTAG_LTGcore_CT_RTGcore_CG] (site AAACACACTAG) (LTG core: CT, RTG core: CG)” is lower in “recombinant barcode read abundance (log10)” value: 1.45 for the first, 1.01 for the second.

Going from “AAACACACTTGGGTTCTAACCTGTTGCCTGC [AAACACACTAG_LTGcore_CT_RTGcore_GC] (site AAACACACTAG) (LTG core: CT, RTG core: GC)” to “AAACACAGCTGGGTTCTAACCTGTTGCCTGC [AAACACACTAG_LTGcore_GC_RTGcore_GC] (site AAACACACTAG) (LTG core: GC, RTG core: GC)”, the “recombinant barcode read abundance (log10)” value falls from 0.456 to 0.0607.

Compared with “AAACACAGTTGGGTTCTAACCTGTTGCCTAC [AAACACACTAG_LTGcore_GT_RTGcore_GT] (site AAACACACTAG) (LTG core: GT, RTG core: GT)”, “AAACACAGTTGGGTTCTAACCTGTTGCCTAG [AAACACACTAG_LTGcore_GT_RTGcore_CT] (site AAACACACTAG) (LTG core: GT, RTG core: CT)” is higher in “recombinant barcode read abundance (log10)” value: 0.112 for the first, 0.804 for the second.

First: AAACACATCTGGGTTCTAACCTGTTGCCTAG [AAACACACTAG_LTGcore_TC_RTGcore_CT] (site AAACACACTAG) (LTG core: TC, RTG core: CT)
Second: AAACAGTATTGGGTTCTAACCTGTTGCCTAG [AAACAGTCTAG_LTGcore_AT_RTGcore_CT] (site AAACAGTCTAG) (LTG core: AT, RTG core: CT)
The “recombinant barcode read abundance (log10)” value of the first is lower: 0.222 for the first, 0.571 for the second.

First: AAACAGTCCTGGGTTCTAACCTGTTGCCTAG [AAACAGTCTAG_LTGcore_CC_RTGcore_CT] (site AAACAGTCTAG) (LTG core: CC, RTG core: CT)
Second: AAACAGTCGTGGGTTCTAACCTGTTGCCTAG [AAACAGTCTAG_LTGcore_CG_RTGcore_CT] (site AAACAGTCTAG) (LTG core: CG, RTG core: CT)
The “recombinant barcode read abundance (log10)” value of the first is lower: 0.93 for the first, 1.17 for the second.

“AAACAGTCTTGGGTTCTAACCTGTTGCCTAA [AAACAGTCTAG_LTGcore_CT_RTGcore_TT] (site AAACAGTCTAG) (LTG core: CT, RTG core: TT)” and “AAACAGTCTTGGGTTCTAACCTGTTGCCTCT [AAACAGTCTAG_LTGcore_CT_RTGcore_AG] (site AAACAGTCTAG) (LTG core: CT, RTG core: AG)” are within 0.2 log units of each other in “recombinant barcode read abundance (log10)” value: 1.55 for the first, 1.72 for the second.

First: AAACAGTCTTGGGTTCTAACCTGTTGCCTTC [AAACAGTCTAG_LTGcore_CT_RTGcore_GA] (site AAACAGTCTAG) (LTG core: CT, RTG core: GA)
Second: AAACAGTTATGGGTTCTAACCTGTTGCCTAG [AAACAGTCTAG_LTGcore_TA_RTGcore_CT] (site AAACAGTCTAG) (LTG core: TA, RTG core: CT)
The “recombinant barcode read abundance (log10)” value of the first is higher: 1.45 for the first, 0.0345 for the second.

Compared with “AAACAGTTATGGGTTCTAACCTGTTGCCTTA [AAACAGTCTAG_LTGcore_TA_RTGcore_TA] (site AAACAGTCTAG) (LTG core: TA, RTG core: TA)”, “AAACATGATTGGGTTCTAACCTGTTGCCTAG [AAACATGCTAG_LTGcore_AT_RTGcore_CT] (site AAACATGCTAG) (LTG core: AT, RTG core: CT)” is higher in “recombinant barcode read abundance (log10)” value: 0.0835 for the first, 0.372 for the second.

Going from “AAACATGCCTGGGTTCTAACCTGTTGCCTAG [AAACATGCTAG_LTGcore_CC_RTGcore_CT] (site AAACATGCTAG) (LTG core: CC, RTG core: CT)” to “AAACATGCCTGGGTTCTAACCTGTTGCCTGG [AAACATGCTAG_LTGcore_CC_RTGcore_CC] (site AAACATGCTAG) (LTG core: CC, RTG core: CC)”, the “recombinant barcode read abundance (log10)” value falls from 0.55 to 0.107.

Going from “AAACATGGGTGGGTTCTAACCTGTTGCCTAG [AAACATGCTAG_LTGcore_GG_RTGcore_CT] (site AAACATGCTAG) (LTG core: GG, RTG core: CT)” to “AAACATGGTTGGGTTCTAACCTGTTGCCTAC [AAACATGCTAG_LTGcore_GT_RTGcore_GT] (site AAACATGCTAG) (LTG core: GT, RTG core: GT)”, the “recombinant barcode read abundance (log10)” value falls from 0.427 to 0.108.

“AAACATGTATGGGTTCTAACCTGTTGCCTAG [AAACATGCTAG_LTGcore_TA_RTGcore_CT] (site AAACATGCTAG) (LTG core: TA, RTG core: CT)” and “AAACATGTCTGGGTTCTAACCTGTTGCCTAG [AAACATGCTAG_LTGcore_TC_RTGcore_CT] (site AAACATGCTAG) (LTG core: TC, RTG core: CT)” are within 0.2 log units of each other in “recombinant barcode read abundance (log10)” value: 0.0615 for the first, 0.0742 for the second.

“AAACATGTCTGGGTTCTAACCTGTTGCCTGA [AAACATGCTAG_LTGcore_TC_RTGcore_TC] (site AAACATGCTAG) (LTG core: TC, RTG core: TC)” and “ACGGGACACTGGGTTCTAACCTGTTGCAGAG [ACGGGACCTCT_LTGcore_AC_RTGcore_CT] (site ACGGGACCTCT) (LTG core: AC, RTG core: CT)” are within 0.2 log units of each other in “recombinant barcode read abundance (log10)” value: 0.0728 for the first, 0.0883 for the second.

First: ACGGGACACTGGGTTCTAACCTGTTGCAGGT [ACGGGACCTCT_LTGcore_AC_RTGcore_AC] (site ACGGGACCTCT) (LTG core: AC, RTG core: AC)
Second: ACGGGACCTTGGGTTCTAACCTGTTGCAGAG [ACGGGACCTCT_LTGcore_CT_RTGcore_CT] (site ACGGGACCTCT) (LTG core: CT, RTG core: CT)
The “recombinant barcode read abundance (log10)” value of the first is lower: 0.0869 for the first, 2.63 for the second.

Going from “ACGGGACCTTGGGTTCTAACCTGTTGCAGCC [ACGGGACCTCT_LTGcore_CT_RTGcore_GG] (site ACGGGACCTCT) (LTG core: CT, RTG core: GG)” to “ACGGGACCTTGGGTTCTAACCTGTTGCAGCG [ACGGGACCTCT_LTGcore_CT_RTGcore_CG] (site ACGGGACCTCT) (LTG core: CT, RTG core: CG)”, the “recombinant barcode read abundance (log10)” value falls from 1.11 to 0.0844.

“ACGGGACCTTGGGTTCTAACCTGTTGCAGGG [ACGGGACCTCT_LTGcore_CT_RTGcore_CC] (site ACGGGACCTCT) (LTG core: CT, RTG core: CC)” and “ACGGGACCTTGGGTTCTAACCTGTTGCAGTA [ACGGGACCTCT_LTGcore_CT_RTGcore_TA] (site ACGGGACCTCT) (LTG core: CT, RTG core: TA)” are within 0.2 log units of each other in “recombinant barcode read abundance (log10)” value: 0.931 for the first, 0.818 for the second.

“ACGGGACCTTGGGTTCTAACCTGTTGCAGTG [ACGGGACCTCT_LTGcore_CT_RTGcore_CA] (site ACGGGACCTCT) (LTG core: CT, RTG core: CA)” and “ACGGGACGATGGGTTCTAACCTGTTGCAGTC [ACGGGACCTCT_LTGcore_GA_RTGcore_GA] (site ACGGGACCTCT) (LTG core: GA, RTG core: GA)” are within 0.2 log units of each other in “recombinant barcode read abundance (log10)” value: 0.172 for the first, 0.229 for the second.

“ACGGGACGGTGGGTTCTAACCTGTTGCAGCC [ACGGGACCTCT_LTGcore_GG_RTGcore_GG] (site ACGGGACCTCT) (LTG core: GG, RTG core: GG)” and “AGGAGGTACTGGGTTCTAACCTGTTGCCTAG [AGGAGGTCTAG_LTGcore_AC_RTGcore_CT] (site AGGAGGTCTAG) (LTG core: AC, RTG core: CT)” are within 0.2 log units of each other in “recombinant barcode read abundance (log10)” value: 0.12 for the first, 0.105 for the second.

Going from “AGGAGGTCTTGGGTTCTAACCTGTTGCCTAA [AGGAGGTCTAG_LTGcore_CT_RTGcore_TT] (site AGGAGGTCTAG) (LTG core: CT, RTG core: TT)” to “AGGAGGTCTTGGGTTCTAACCTGTTGCCTAG [AGGAGGTCTAG_LTGcore_CT_RTGcore_CT] (site AGGAGGTCTAG) (LTG core: CT, RTG core: CT)”, the “recombinant barcode read abundance (log10)” value rises from 0.203 to 1.59.

“AGGAGGTCTTGGGTTCTAACCTGTTGCCTAT [AGGAGGTCTAG_LTGcore_CT_RTGcore_AT] (site AGGAGGTCTAG) (LTG core: CT, RTG core: AT)” and “AGGAGGTCTTGGGTTCTAACCTGTTGCCTCA [AGGAGGTCTAG_LTGcore_CT_RTGcore_TG] (site AGGAGGTCTAG) (LTG core: CT, RTG core: TG)” are within 0.2 log units of each other in “recombinant barcode read abundance (log10)” value: 0.407 for the first, 0.322 for the second.

First: AGGAGGTCTTGGGTTCTAACCTGTTGCCTCG [AGGAGGTCTAG_LTGcore_CT_RTGcore_CG] (site AGGAGGTCTAG) (LTG core: CT, RTG core: CG)
Second: AGGAGGTCTTGGGTTCTAACCTGTTGCCTGT [AGGAGGTCTAG_LTGcore_CT_RTGcore_AC] (site AGGAGGTCTAG) (LTG core: CT, RTG core: AC)
The “recombinant barcode read abundance (log10)” value of the first is higher: 0.386 for the first, 0.126 for the second.

For “AGGAGGTTCTGGGTTCTAACCTGTTGCCTGA [AGGAGGTCTAG_LTGcore_TC_RTGcore_TC] (site AGGAGGTCTAG) (LTG core: TC, RTG core: TC)”, the “recombinant barcode read abundance (log10)” value was 0.0288.

Source: the supplement of paper PMC11208160
